7 compounds from PMC7397156, “Cytotoxic Phenanthrene, Dihydrophenanthrene, and Dihydrostilbene Derivatives and Other Aromatic Compounds from Combretum laxum” (Molecules, 2020) can be followed below.

Bounds are passed on as bounds.

The nature of series [1]: DPPH-radical-scavenging assay. The following applies: 30 min, absorbance at 515 nm; mean ± SD, three independent experiments; read-out: Radical-scavenging activity against DPPH, IC50. On the procedure: The radical-scavenging activities of compounds 1–6 were determined using DPPH (a stable free radical), employing the method of microdilution in 96-well microplates described by Zhang et al. and Yamaguchi et al., with some modifications. The assays were performed in triplicate, using caffeic acid as a standard compound and a DPPH solution in EtOH (200 µM) as a negative control. Solutions of samples in EtOH at 200 µM were serially diluted to 100, 50, 25, 12.5, and 6.25 µM. Each solution (100 µL) was mixed with 100 µL of DPPH solution. The samples were allowed to stand at room temperature in the dark for 30 min, after which their absorbances were recorded at 515 nm. The ability of test materials to scavenge DPPH radicals was calculated as follows: DPPH scavenging effect (%) = 100 (Acontrol − Asample)/Acontrol. Radical-scavenging activities were assessed on the basis of their IC50 values determined by linear regression.
In general terms: The DPPH test is a chemical assay of radical scavenging.

For the next series, the system named is UACC-62. In words: SRB cytotoxicity assay, UACC-62 melanoma cells. The following applies: for IC50: Homo sapiens, UACC-62, read-out: Cytotoxicity IC50, UACC-62. On the technique in general: In SRB staining, fixed cells bind dye roughly in proportion to their protein.
For another series, the system named is NCI/ADR-RES. Briefly: SRB cytotoxicity assay, NCI/ADR-RES ovary carcinoma cells, multidrug-resistant phenotype. The following applies: Homo sapiens, read-out: Cytotoxicity IC50, NCI/ADR-RES.
Another series relates to 786-0. In words: SRB cytotoxicity assay, 786-0 kidney carcinoma cells. The following applies: Homo sapiens, 786-0, read-out: Cytotoxicity IC50, 786-0.
The next series relates to MCF-7. In words: SRB cytotoxicity assay, MCF-7 breast carcinoma cells. The following applies: Homo sapiens, MCF7, read-out: Cytotoxicity IC50, MCF-7.
The test system of another series is Hep2. Briefly: SRB cytotoxicity assay, Hep2 larynx carcinoma cells. In kind it is cell-based. The following applies: Homo sapiens, HEp-2, mean ± SD, three independent experiments.
Series [2] can be described thus: SRB cytotoxicity assay, VERO nonneoplastic cells. In kind it is cell-based, monkey. The following applies: monkey, VERO (monkey kidney) nonneoplastic cells; at 2.5 µg mL^−1. The text has this: (§1) In addition, 4 inhibited the proliferation of UACC-62 and VERO cells in a dose-dependent manner.
A further series relates to VERO cells. In words: SRB cytotoxicity assay, VERO nonneoplastic cells. In kind it is cell-based, monkey.
Description: as §1

[3] abbreviates: 0.25, 2.5 and 25 µg mL^−1, points above zero in growth curves (Figure 2).

Description for 786-0: (§2) To this end, a sulforhodamine B (SRB; purity ≥ 97%; Sigma, St. Louis, MO, USA) assay was performed, as described elsewhere [53, 54]. […] IC50 values were calculated from the differences in absorbance readings at 540 nm in untreated (negative control) and treated cells on a SpectraMax 190 microplate reader (Molecular Devices, San Jose, CA, USA) [53] through nonlinear regression analysis, using Origin 6.0 software (OriginLab, Northampton, MA, USA), and growth percentages were calculated as described elsewhere [53]. The data presented are the mean ± standard deviation of at least three independent cell preparations made in triplicate.
Description for MCF-7: as §2
Description for NCI/ADR-RES: as §2
Description for UACC-62: as §2

For `O=C(O)/C=C/c1ccc(O)c(O)c1` [Caffeic acid, caffeic acid, reference compound], the IC50 in series [1] turned out to be 10.9 ± 0.1 µM.

On to `COc1cc2c(cc1O)-c1c(cc(O)c(OC)c1OC)CC2` [Compound 5, 2,6-Dihydroxy-3,4,7-trimethoxy-9,10-dihydrophenanthrene], for which the IC50 in the series with UACC-62 was found to be 222 ± 3.04 µM; in series [1], 32.9 ± 0.3 µM; with NCI/ADR-RES, 212 ± 14.1 µM; in the series on 786-0, 199 ± 6.75 µM; with MCF-7, 42 ± 9.33 µM; in the series with Hep2, 223 ± 2.81 µM.

Regarding `COc1cc2c(cc1O)-c1c(cc(O)cc1OC)CC2` [Compound 6, 2,6-dihydroxy-4,7-dimethoxy-9,10-dihydrophenanthrene], the IC50 with UACC-62 came to 268 ± 13.8 µM; in series [1], 17.7 ± 0.3 µM; with NCI/ADR-RES, 303 ± 12.6 µM; in the series with 786-0, 257 ± 6.51 µM; in the series with MCF-7, 160 ± 8.21 µM; with Hep2, 547.58 ± 0.11 µM.

In the case of `COc1cc(CCc2cc(OC)c(OC)c(Oc3cc(OC)c(OC)c(OC)c3)c2)ccc1O` [Compound 1, 4′-Hydroxy-3,3′,4-trimethoxy-5-(3,4,5-trimethoxyphenoxy)-bibenzyl], the IC50 in series [1] stood at 56.5 ± 0.3 µM; in the series on NCI/ADR-RES, 32.1 ± 4.31 µM; in the series on 786-0, 113 ± 2.89 µM; in the series on MCF-7 it was 72.7 ± 4.87 µM; in the series on Hep2, 218 ± 2.52 µM.

A word on the viability: it is a per cent measure of how many cells are alive, often set against a control. `COc1cc2c(cc1O)CCc1cc(O)cc(OC)c1-2` [Compound 4, 2,7-dihydroxy-4,6-dimethoxy-9,10-dihydrophenanthrene]: the “Effect on UACC-62 cell growth” value in the series on UACC-62 (setting [3]) is given as “cytostatic (growth inhibition) effect”. In addition, the IC50 is 2.59 ± 0.11 µM with UACC-62; 55.6 ± 0.4 µM in series [1]; 58.8 ± 2.33 µM in the series on NCI/ADR-RES; 57 ± 9.29 µM in the series on 786-0; 65.1 ± 4.51 µM in the series with VERO cells (Primates, Vero, SRB assay, read-out: IC50 on nontumor mammalian VERO cells); 47 ± 5.55 µM in the series with MCF-7. This compound yielded an IC50 with Hep2 of 208 ± 17.1 µM. For the same compound, the “Concentration from which a cytocidal (cell death) effect is seen on UACC-62 cells” value in the series with UACC-62 (points below zero in growth curves (Figure 2)) was no less than 2.5 µg/mL. Besides, the viability at 2.5 µg mL^−1 in series [2] was roughly 100%. In addition, the “Effect on VERO cell growth” value with VERO cells (setting [3]) was “cytostatic (growth inhibition) effect”.

Take `COc1cc2c(ccc3cc(O)cc(OC)c32)cc1O` [Compound 2, 2,7-Dihydroxy-4,6-dimethoxyphenanthrene]: the IC50 in the series with UACC-62 was greater than 250 µM; in series [1], 20.4 ± 0.3 µM; in the series with NCI/ADR-RES, 84 ± 5.4 µM; in the series on 786-0 it was 73.3 ± 7.7 µM; in the series with MCF-7, 118 ± 9.29 µM; in the series with Hep2, greater than 250 µM.

Consider `COc1cc2ccc3cc(O)c(OC)c(OC)c3c2cc1O` [Compound 3, 2,6-Dihydroxy-3,4,7-trimethoxyphenanthrene], for which the IC50 in the series on UACC-62 was found to be 247 ± 10.3 µM; in series [1], 45.6 ± 0.3 µM; with NCI/ADR-RES, 117 ± 2.66 µM; in the series on 786-0 it was 64.3 ± 9.62 µM; with MCF-7 it was 226 ± 5.09 µM.
